Blank lines part the entries; values can stand above or below the molecule they belong to.
Assays:
Assay type in all cases: functional, cell membranes, Sprague-Dawley, Bile canalicular membrane vesicle
[1] = target: T1, ATP-binding cassette sub-family C member 2 (Rattus norvegicus, UniProt Q63120); assay: TP_TRANSPORTER: inhibition of Temocaprilat uptake in bile canalicular membrane vesicles from SD rat
[2] = target: T1, ATP-binding cassette sub-family C member 2; assay: TP_TRANSPORTER: inhibition of DNP-SG uptake in bile canalicular membrane vesicles from SD rat
[3] = substrate: O=C(O)CN1C[C@@H](c2cccs2)SC[C@H](N[C@@H](CCc2ccccc2)C(=O)O)C1=O; assay: TP_TRANSPORTER: uptake in bile canalicular membrane vesicles from SD rat

Molecule: N[C@@H](CCC(=O)N[C@H](CSc1ccc([N+](=O)[O-])cc1[N+](=O)[O-])C(=O)NCC(=O)O)C(=O)O
- Ki [1]: 25.8 µM

- Ki [2]: 343 µM
Molecule: O=C(O)CN1C[C@@H](c2cccs2)SC[C@H](N[C@@H](CCc2ccccc2)C(=O)O)C1=O [TEMOCAPRILAT]

B1: ATP-binding cassette sub-family C member 2 (Rattus norvegicus) (protein)
chain: MDKFCNSTFWDLSLLESPEADLPLCFEQTVLVWIPLGFLWLLAPWQLYSVYRSRTKRSSITKFYLAKQVFVVFLLILAAIDLSLALTEDTGQATVPPVRYTNPILYLCTWLLVLAVQHSRQWCVRKNSWFLSLFWILSVLCGVFQFQTLIRALLKDSKSNMAYSYLFFVSYGFQIVLLILTAFSGPSDSTQTPSVTASFLSSITFSWYDRTVLKGYKHPLTLEDVWDIDEGFKTRSVTSKFEAAMTKDLQKARQAFQRRLQKSQRKPEATLHGLNKKQSQSQDVLVLEEAKKKSEKTTKDYPKSWLIKSLFKTFHVVILKSFILKLIHDLLVFLNPQLLKLLIGFVKSSNSYVWFGYICAILMFAVTLIQSFCLQSYFQHCFVLGMCVRTTVMSSIYKKALTLSNLARKQYTIGETVNLMSVDSQKLMDATNYMQLVWSSVIQITLSIFFLWRELGPSILAGVGVMVLLIPVNGVLATKIRNIQVQNMKNKDKRLKIMNEILSGIKILKYFAWEPSFQEQVQGIRKKELKNLLRFGQLQSLLIFILQITPILVSVVTFSVYVLVDSANVLNAEKAFTSITLFNILRFPLSMLPMVTSSILQASVSVDRLERYLGGDDLDTSAIRRVSNFDKAVKFSEASFTWDPDLEATIQDVNLDIKPGQLVAVVGTVGSGKSSLVSAMLGEMENVHGHITIQGSTAYVPQQSWIQNGTIKDNILFGSEYNEKKYQQVLKACALLPDLEILPGGDMAEIGEKGINLSGGQKQRVSLARAAYQDADIYILDDPLSAVDAHVGKHIFNKVVGPNGLLAGKTRIFVTHGIHFLPQVDEIVVLGKGTILEKGSYRDLLDKKGVFARNWKTFMKHSGPEGEATVNNDSEAEDDDDGLIPTMEEIPEDAASLAMRRENSLRRTLSRSSRSSSRRGKSLKNSLKIKNVNVLKEKEKEVEGQKLIKKEFVETGKVKFSIYLKYLQAVGWWSILFIILFYGLNNVAFIGSNLWLSAWTSDSDNLNGTNNSSSHRDMRIGVFGALGLAQGICLLISTLWSIYACRNASKALHGQLLTNILRAPMRFFDTTPTGRIVNRFSGDISTVDDLLPQTLRSWMMCFFGIAGTLVMICMATPVFAIIIIPLSILYISVQVFYVATSRQLRRLDSVTKSPIYSHFSETVTGLPIIRAFEHQQRFLAWNEKQIDINQKCVFSWITSNRWLAIRLELVGNLVVFCSALLLVIYRKTLTGDVVGFVLSNALNITQTLNWLVRMTSEAETNIVAVERISEYINVENEAPWVTDKRPPADWPRHGEIQFNNYQVRYRPELDLVLKGITCNIKSGEKVGVVGRTGAGKSSLTNCLFRILESAGGQIIIDGIDVASIGLHDLRERLTIIPQDPILFSGSLRMNLDPFNKYSDEEVWRALELAHLRSFVSGLQLGLLSEVTEGGDNLSIGQRQLLCLGRAVLRKSKILVLDEATAAVDLETDSLIQTTIRKEFSQCTVITIAHRLHTIMDSDKIMVLDNGKIVEYGSPEELLSNRGSFYLMAKEAGIENVNHTEL
- Km [3]: 92.5 µM

— ChEMBL document CHEMBL2074278, “Temocaprilat, a novel angiotensin-converting enzyme inhibitor, is excreted in bile via an ATP-dependent active transporter (cMOAT) that is deficient in Eisai hyperbilirubinemic mutant rats (EHBR)” (J Pharmacol Exp Ther, 1997)
